System: yeast genes (level of expressed mRNA)
Assay: DNA chip analysis of expressed mRNA of yeast genes after 2 h culture with a toxic chemical substance
Format: cell-based, Saccharomyces cerevisiae S288C
Settings: for The level of expressed mRNA in the presence of chemical substance/: ratio to no chemical; for The level of expressed mRNA in the presence of chemical substance/ (ratio to absence): transport facilitation protein gene; for The level of expressed mRNA in the presence of chemical substance/ (ratio to absence of chemical substance): stress protein genes, DNA chip; for The level of expressed mRNA in the presence of chemical substance/ in its absence, gene YPR184W: yeast gene YPR184W
In short: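 S. cerevisiae S288C in YPD at 25 °C was exposed at log phase for 2 h to a growth-inhibiting, non-lethal concentration of the chemical. Poly(A) mRNA was reverse-transcribed with Cy3- or Cy5-dUTP and hybridized to a whole-genome yeast DNA chip (65 °C, >12 h). Values are fluorescence ratios versus untreated cells.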

sodium dodecylbenzosulfonate [(17)]
The level of expressed mRNA in the presence of chemical substance/The level of expressed mRNA in the absence of chemical substance (yeast gene YOR198C): 1.1 | The level of expressed mRNA in the presence of chemical substance/ (yeast gene YOR220W): 3.5 | The level of expressed mRNA in the presence of chemical substance/ (yeast gene YOR225W): 0.9 | The level of expressed mRNA in the presence of chemical substance/in the absence of chemical substance (yeast gene YOR226C): 1.0 | The level of expressed mRNA in the presence of chemical substance/ (yeast gene YOR228C): 1.0 | The level of expressed mRNA in the presence of chemical substance/ (in its absence), gene YOR251C (yeast gene YOR251C, ratio of DNA chip fluorescence intensity to that without chemical substance): 0.9 | The level of expressed mRNA in the presence of chemical substance/ (yeast gene YOR255W): 1.0 | The level of expressed mRNA in the presence of chemical substance/The level of expressed mRNA in the absence of chemical substance (yeast gene YOR259C): 0.9 | The level of expressed mRNA in the presence of chemical substance/The level of expressed mRNA in the absence of chemical substance (yeast gene YOR261C): 1.0 | The level of expressed mRNA in the presence of chemical substance/ (ratio to absence) (yeast gene YOR270C): 0.9 | The level of expressed mRNA in the presence of chemical substance/ (ratio to absence) (yeast gene YOR273C): 3.2 | The level of expressed mRNA in the presence of chemical substance/The level of expressed mRNA in the absence of chemical substance (yeast gene YOR288C): 1.5 | The level of expressed mRNA in the presence of chemical substance/in the absence of chemical substance (yeast gene YOR303W): 1.2 | The level of expressed mRNA in the presence of chemical substance/ (ratio to absence), gene YOR316C (yeast gene YOR316C, mitochondria-located protein genes, 2 h culture with chemical): 0.8 | The level of expressed mRNA in the presence of chemical substance/ (ratio to absence) (yeast gene YOR332W): 1.3 | The level of expressed mRNA in the presence of chemical substance/ (in its absence), gene YOR348C (yeast gene YOR348C, ratio of DNA chip fluorescence intensity to that without chemical substance): 0.9 | The level of expressed mRNA in the presence of chemical substance/The level of expressed mRNA in the absence of chemical substance (yeast gene YOR355W): 0.8 | The level of expressed mRNA in the presence of chemical substance/ (in its absence), gene YOR363C (yeast gene YOR363C, ratio of DNA chip fluorescence intensity to that without chemical substance): 1.3 | The level of expressed mRNA in the presence of chemical substance/The level of expressed mRNA in the absence of chemical substance (yeast gene YOR383C): 1.4 | The level of expressed mRNA in the presence of chemical substance/ (ratio to absence), gene YPL040C (yeast gene YPL040C, mitochondria-located protein genes, 2 h culture with chemical): 0.8 | The level of expressed mRNA in the presence of chemical substance/ (ratio to absence of chemical substance) (yeast gene YPL059W): 1.8 | The level of expressed mRNA in the presence of chemical substance/in the absence of chemical substance (yeast gene YPL088W): 9.1 | The level of expressed mRNA in the presence of chemical substance/The level of expressed mRNA in the absence of chemical substance (yeast gene YPL089C): 1.5 | The level of expressed mRNA in the presence of chemical substance/The level of expressed mRNA in the absence of chemical substance (yeast gene YPL109C): 1.2 | The level of expressed mRNA in the presence of chemical substance/ (ratio to absence), gene YPL134C (yeast gene YPL134C, mitochondria-located protein genes, 2 h culture with chemical): 1.3 | The level of expressed mRNA in the presence of chemical substance/ (ratio to absence of chemical substance) (yeast gene YPL140C): 0.9 | The level of expressed mRNA in the presence of chemical substance/ (ratio to absence) (yeast gene YPL147W): 1.5 | The level of expressed mRNA in the presence of chemical substance/ (in its absence), gene YPL148C (yeast gene YPL148C, ratio of DNA chip fluorescence intensity to that without chemical substance): 1.0 | The level of expressed mRNA in the presence of chemical substance/The level of expressed mRNA in the absence of chemical substance (yeast gene YPL149W): 2.2 | The level of expressed mRNA in the presence of chemical substance/The level of expressed mRNA in the absence of chemical substance (yeast gene YPL154C): 1.6 | The level of expressed mRNA in the presence of chemical substance/ (yeast gene YPL166W): 1.1 | The level of expressed mRNA in the presence of chemical substance/ (ratio to absence of chemical substance) (yeast gene YPL194W): 1.0 | The level of expressed mRNA in the presence of chemical substance/ (yeast gene YPL202C): 1.1 | The level of expressed mRNA in the presence of chemical substance/ (ratio to absence) (yeast gene YPL224C): 1.3 | The level of expressed mRNA in the presence of chemical substance/ (ratio to absence) (yeast gene YPL265W): 0.5 | The level of expressed mRNA in the presence of chemical substance/ (ratio to absence) (yeast gene YPL271W): 1.2 | The level of expressed mRNA in the presence of chemical substance/ (ratio to absence) (yeast gene YPL274W): 0.7 | The level of expressed mRNA in the presence of chemical substance/ (ratio to absence of chemical substance) (yeast gene YPR005C): 1.0 | The level of expressed mRNA in the presence of chemical substance/ (yeast gene YPR077C): 1.4 | The level of expressed mRNA in the presence of chemical substance/The level of expressed mRNA in the absence of chemical substance (yeast gene YPR103W): 1.2 | The level of expressed mRNA in the presence of chemical substance/The level of expressed mRNA in the absence of chemical substance (yeast gene YPR108W): 1.0 | The level of expressed mRNA in the presence of chemical substance/ (ratio to absence) (yeast gene YPR124W): 1.0 | The level of expressed mRNA in the presence of chemical substance/ (yeast gene YPR147C): 1.1 | The level of expressed mRNA in the presence of chemical substance/ (in its absence), gene YPR165W (yeast gene YPR165W, ratio of DNA chip fluorescence intensity to that without chemical substance): 2.3 | The level of expressed mRNA in the presence of chemical substance/in the absence of chemical substance (yeast gene YPR167C): 1.7 | The level of expressed mRNA in the presence of chemical substance/ in its absence, gene YPR184W (energy system protein genes, 2 h culture with the chemical, ratio to control without chemical): 1.0 | The level of expressed mRNA in the presence of chemical substance/ in its absence, gene YPR184W (ratio of DNA chip fluorescence intensity to that without chemical substance): 1.0 | The level of expressed mRNA in the presence of chemical substance/ (ratio to absence) (yeast gene YPR201W): 0.8
